From paper PMC5424180, “The molecular mechanism of the type IVa pilus motors” (Nature Communications, 2017)

Key:
PilB (PilBGm) [1] = biological target: T1, PilB (PilBGm) (Geobacter metallireducens, UniProt Q39VU7); experiment: X-ray crystallography, […] Å (anisotropic); conditions: Mg2+; pH 7.6; 20 °C; no exogenous nucleotide, ADP co-purified from E. coli; four closed ATP binding sites
T1 construct: hexamer; residues 181-568 (N2D + CTD) built; primer-encoded start MQASRL, end TVADD

PilB (PilBGm) [2] = biological target: T1, PilB (PilBGm); experiment: X-ray crystallography, […] Å; conditions: Mg2+; pH 7.0; 20 °C; non-saturating AMP-PNP; ATP binding sites (closed full occupancy, open ~70%)
[3] = biological target: PilB from Geobacter metallireducens (Geobacter metallireducens); experiment: crystal structure; PilB:AMP-PNP; non-saturating AMP-PNP (50 μM final to 120 μM PilB); 11% PEG3350, 0.1 M magnesium formate, 0.1 M Tris pH 7.0, vapour diffusion at 20 °C; six chains in the asymmetric unit
[4] = biological target: PilB from Geobacter metallireducens (Geobacter metallireducens); experiment: crystal structure; PilB:ADP; no exogenous nucleotide added; 13% PEG3350, 0.1 M magnesium formate, 0.1 M Tris pH 7.6, vapour diffusion at 20 °C; three chains in the asymmetric unit, hexamer from crystal packing

T1 sequence (Q39VU7 entry or part of it): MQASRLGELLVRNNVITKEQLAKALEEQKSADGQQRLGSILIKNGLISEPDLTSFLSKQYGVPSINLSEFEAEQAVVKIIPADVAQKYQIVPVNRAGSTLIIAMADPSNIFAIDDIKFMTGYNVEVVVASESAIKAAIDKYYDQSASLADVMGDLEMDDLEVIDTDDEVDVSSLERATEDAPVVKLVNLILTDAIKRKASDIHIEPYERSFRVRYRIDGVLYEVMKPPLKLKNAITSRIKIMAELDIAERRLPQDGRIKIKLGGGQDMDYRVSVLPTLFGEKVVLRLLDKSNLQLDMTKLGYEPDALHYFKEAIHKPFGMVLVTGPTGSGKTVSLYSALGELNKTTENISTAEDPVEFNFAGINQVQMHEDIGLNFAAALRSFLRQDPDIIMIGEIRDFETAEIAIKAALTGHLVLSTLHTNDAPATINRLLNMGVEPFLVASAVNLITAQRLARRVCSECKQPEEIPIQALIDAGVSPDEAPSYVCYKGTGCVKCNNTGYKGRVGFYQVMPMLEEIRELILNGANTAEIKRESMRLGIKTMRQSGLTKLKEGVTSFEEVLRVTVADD

For `Nc1ncnc2c1ncn2[C@@H]1O[C@H](COP(=O)(O)OP(=O)(O)O)[C@@H](O)[C@H]1O` [ADP], the “X-ray crystallography, 3.4 Å (anisotropic)” value (PilB (PilBGm) [1]) was “In four sites, ADP and magnesium best fit the electron density”.
In the case of `Nc1ncnc2c1ncn2[C@@H]1O[C@H](COP(=O)(O)OP(=O)(O)NP(=O)(O)O)[C@@H](O)[C@H]1O` [AMP-PNP], the “X-ray crystallography, 2.3 Å” value (PilB (PilBGm) [2]) is reported as “Between two packing units, AMP-PNP, magnesium, and several highly ordered waters best fit”.
Work on “PilB from Geobacter metallireducens (enzyme)” yielded a stoichiometry N [3] of 6 and a stoichiometry N [4] of 6.
